BindingDB's records for doi:10.1021/acs.jmedchem.7b01525 (University of Montreal, 2017)

Experiments:
Urotensin-2 receptor [1] = target: T1, Urotensin-2 receptor (Homo sapiens, UniProt Q9UKP6); assay: Allosteric modulation of human urotensin-2 receptor expressed in HEK293 cells assessed as change in URP-induced Gq activation by measuring URP pEC50 at 10^-5 M preincubated for 30 mins followed by URP addition by BRET assay (Rvb = 8.28 +/- 0.08 No_unit)
T1 sequence (Q9UKP6 whole entry): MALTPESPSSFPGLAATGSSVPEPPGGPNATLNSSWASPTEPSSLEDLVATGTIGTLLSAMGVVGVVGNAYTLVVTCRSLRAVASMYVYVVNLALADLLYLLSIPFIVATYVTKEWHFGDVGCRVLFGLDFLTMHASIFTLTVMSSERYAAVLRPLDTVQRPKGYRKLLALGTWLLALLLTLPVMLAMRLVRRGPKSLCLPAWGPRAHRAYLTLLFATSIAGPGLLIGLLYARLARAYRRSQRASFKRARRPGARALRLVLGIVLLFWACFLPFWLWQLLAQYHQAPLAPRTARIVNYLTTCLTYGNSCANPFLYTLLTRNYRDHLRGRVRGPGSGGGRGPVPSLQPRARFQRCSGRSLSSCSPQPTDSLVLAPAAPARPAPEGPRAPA

Urotensin-2 receptor [2] = target: T2, Urotensin-2 receptor (Rattus norvegicus, UniProt P49684); assay: Allosteric modulation of urotensin-2 receptor in Sprague-Dawley rat thoracic aorta assessed as change in URP-mediated aortic ring contraction by measuring URP pEC50 at 10^-5M preincubated for 15 mins followed by URP addition (Rvb = 8.09 +/- 0.03 No_unit)
T2 sequence (P49684 whole entry): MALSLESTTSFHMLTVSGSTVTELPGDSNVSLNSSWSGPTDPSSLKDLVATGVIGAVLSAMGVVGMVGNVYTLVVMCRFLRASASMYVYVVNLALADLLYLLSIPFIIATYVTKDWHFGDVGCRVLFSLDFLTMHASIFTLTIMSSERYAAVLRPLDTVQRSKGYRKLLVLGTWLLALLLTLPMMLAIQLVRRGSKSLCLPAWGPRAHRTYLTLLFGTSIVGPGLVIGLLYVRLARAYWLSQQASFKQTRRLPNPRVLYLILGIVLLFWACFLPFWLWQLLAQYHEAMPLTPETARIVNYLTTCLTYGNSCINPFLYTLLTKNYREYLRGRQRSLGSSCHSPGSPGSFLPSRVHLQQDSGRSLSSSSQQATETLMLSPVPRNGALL

Urotensin-2 receptor [3] = target: T1, Urotensin-2 receptor; assay: Allosteric modulation of human urotensin-2 receptor expressed in HEK293 cells assessed as change in human urotensin-2-induced Gq activation by measuring urotensin-2 pEC50 at 10^-5 M preincubated for 30 mins followed by urotensin-2 addition by BRET assay (Rvb = 7.88 +/- 0.07 No_unit)
Urotensin-2 receptor [4] = target: T1, Urotensin-2 receptor; assay: Allosteric modulation of human urotensin-2 receptor expressed in HEK293 cells assessed as change in human urotensin-2-induced G12 activation by measuring urotensin-2 pEC50 at 10^-5 M preincubated for 30 mins followed by urotensin-2 addition by BRET assay (Rvb = 6.31 +/- 0.17 No_unit)
Urotensin-2 receptor [5] = target: T1, Urotensin-2 receptor; assay: Allosteric modulation of human urotensin-2 receptor expressed in HEK293 cells assessed as change in URP-induced G12 activation by measuring URP pEC50 at 10^-5 M preincubated for 30 mins followed by URP addition by BRET assay (Rvb = 6.75 +/- 0.19 No_unit)
Urotensin-2 receptor [6] = target: T2, Urotensin-2 receptor; assay: Allosteric modulation of urotensin-2 receptor in Sprague-Dawley rat thoracic aorta assessed as change in human urotensin-2-mediated aortic ring contraction by measuring urotensin-2 pEC50 at 10^-5M preincubated for 15 mins followed by urotensin-2 addition (Rvb = 8.61 +/- 0.05 No_unit)
[7] = Allosteric modulation of urotensin-2 receptor in Sprague-Dawley rat thoracic aorta assessed as change in human urotensin-2-mediated aortic ring contraction by measuring urotensin-2 pEC50 at 1 uM preincubated for 15 mins followed by urotensin-2 addition (Rvb = 8.61 +/- 0.05 No_unit)
[8] = Allosteric modulation of urotensin-2 receptor in Sprague-Dawley rat thoracic aorta assessed as change in URP-mediated aortic ring contraction by measuring URP pEC50 at 1 uM preincubated for 15 mins followed by URP addition (Rvb = 8.09 +/- 0.03 No_unit)

SMILES | EC50 (Urotensin-2 receptor [2]) [nM] | EC50 (Urotensin-2 receptor [6]) [nM] | other results
NCCCCN1N=C(C=Cc2ccc(O)cc2)c2ccccc2N(Cc2ccc(-c3ccccc3)cc2)C1=O | 9.3 | – | EC50 (Urotensin-2 receptor [1]): 4.2 nM; EC50 (Urotensin-2 receptor [3]): 14 nM; EC50 (Urotensin-2 receptor [4]): 2190 nM; EC50 (Urotensin-2 receptor [5]): 117 nM
COc1ccc(CCC2=NN(CCCN)C(=O)N(Cc3ccc(-c4ccccc4)cc3)c3ccccc32)cc1 | 7.8 | 3.2 | –
NCCCN1N=C(CCc2ccc(O)cc2)c2ccccc2N(Cc2ccc(-c3ccccc3)cc2)C1=O | 11 | 4.5 | –
CC(C)[C@H](NC(=O)[C@@H]1CSSC[C@H](NC(=O)[C@H](C)N)C(=O)N[C@@H](Cc2ccccc2)C(=O)N[C@@H](Cc2ccc(-c3ccccc3)cc2)C(=O)N[C@@H](CCCCN)C(=O)N[C@@H](Cc2ccc(O)cc2)C(=O)N1)C(=O)O | – | – | EC50 [7]: 25 nM; EC50 [8]: 18 nM
NCCCCN1N=C(CCc2nc3ccccc3s2)c2ccccc2N(Cc2ccc(-c3ccccc3)cc2)C1=O | 3.7 | 12 | –
NCCCN1N=C(CCc2ccc(O)cc2)c2ccccc2N(Cc2ccc3ccccc3c2)C1=O | 10 | 3.7 | –
CNCCCCN1N=C(CCc2nc3ccccc3s2)c2ccccc2N(Cc2ccc3ccccc3c2)C1=O | 4.3 | 4.3 | –
NCCCN1N=C(CCc2nc3ccccc3s2)c2ccccc2N(Cc2cccc3ccccc23)C1=O | 5.8 | 4.8 | –
NCCCCN1N=C(CCc2ccc(O)cc2)c2ccccc2N(Cc2ccc3ccccc3c2)C1=O | 10 | 4.4 | EC50 (Urotensin-2 receptor [1]): 5 nM; EC50 (Urotensin-2 receptor [3]): 11 nM; EC50 (Urotensin-2 receptor [4]): 1180 nM; EC50 (Urotensin-2 receptor [5]): 1100 nM
CNCCCCN1N=C(CCc2nc3ccccc3s2)c2ccccc2N(Cc2cccc3ccccc23)C1=O | 6.6 | 4.1 | –
NCCCCN1N=C(CCc2nc3ccccc3s2)c2ccccc2N(Cc2ccc3ccccc3c2)C1=O | 3.5 | 3 | –
NCCCN1N=C(CCc2nc3ccccc3s2)c2ccccc2N(Cc2ccc(-c3ccccc3)cc2)C1=O | 3.7 | 1.4 | –
NCCCCN1N=C(C=Cc2ccc(O)cc2)c2ccccc2N(Cc2ccc3ccccc3c2)C1=O | – | 15 | –
CNCCCCN1N=C(CCc2nc3ccccc3s2)c2ccccc2N(Cc2ccc(-c3ccccc3)cc2)C1=O | 15 | 6 | –
NCCCN1N=C(CCc2nc3ccccc3s2)c2ccccc2N(Cc2ccc3ccccc3c2)C1=O | 4 | 3.3 | EC50 (Urotensin-2 receptor [1]): 6.2 nM; EC50 (Urotensin-2 receptor [3]): 11 nM; EC50 (Urotensin-2 receptor [4]): 3720 nM; EC50 (Urotensin-2 receptor [5]): 1950 nM
COc1ccc(CCC2=NN(CCCN)C(=O)N(Cc3ccc4ccccc4c3)c3ccccc32)cc1 | 6.3 | 4 | –
NCCCN1N=C(C=Cc2ccc(O)cc2)c2ccccc2N(Cc2ccc3ccccc3c2)C1=O | 20 | 12 | –
COc1ccc(C=CC2=NN(CCCCN)C(=O)N(Cc3ccc4ccccc4c3)c3ccccc32)cc1 | 8.5 | 3.6 | –
CNCCCN1N=C(CCc2nc3ccccc3s2)c2ccccc2N(Cc2ccc(-c3ccccc3)cc2)C1=O | 4.9 | 4.1 | –
COc1ccc(CCC2=NN(CCCCN)C(=O)N(Cc3ccc4ccccc4c3)c3ccccc32)cc1 | 4 | 5 | –
NCCCCN1N=C(CCc2ccc(O)cc2)c2ccccc2N(Cc2ccc(-c3ccccc3)cc2)C1=O | 20 | 3.5 | –
COc1ccc(C=CC2=NN(CCCCN)C(=O)N(Cc3ccc(-c4ccccc4)cc3)c3ccccc32)cc1 | 6.3 | – | EC50 (Urotensin-2 receptor [1]): 7.1 nM; EC50 (Urotensin-2 receptor [3]): 8.5 nM; EC50 (Urotensin-2 receptor [4]): 2240 nM; EC50 (Urotensin-2 receptor [5]): 1740 nM
COc1ccc(CCC2=NN(CCCCN)C(=O)N(Cc3ccc(-c4ccccc4)cc3)c3ccccc32)cc1 | 5 | 3.7 | –
